# Results: paper PMC12396409, “Screening and hit evaluation of a microbial metabolite library against the pathogenic Plasmodium falciparum and Toxoplasma gondii parasites” (International Journal for Parasitology: Drugs and Drug …, 2025)
# Read-outs that look alike come from different tables or passages of the source.
# Columns and labels:
# [1] = test system: P. falciparum 3D7 parasites; experiment: P. falciparum growth inhibition assay, 2-cycle (120 h treatment), delayed-death screen and dose-response; assay type: cell-based, Plasmodium falciparum
# [2] = test system: P. falciparum 3D7 parasites; experiment: P. falciparum growth inhibition assay, 1-cycle (72 h treatment), SYBR DNA staining (library screen at 2 μg/mL and dose-response); assay type: cell-based, Plasmodium falciparum
# [3] = test system: T. gondii RH strain (RH-Tub-eYFP) tachyzoites; experiment: microbe, parasite or virus in culture; assay type: cell-based, Toxoplasma gondii
# [4] = P. falciparum, 120 h, parasite screen 2 μg/mL, % growth, replicate 1
# [5] = P. falciparum, 120 h, parasite screen 2 μg/mL, % growth, replicate 2
# [6] = P. falciparum, 72 h, parasite screen 2 μg/mL, % growth, replicate 1
# [7] = P. falciparum, 72 h, parasite screen 2 μg/mL, % growth, replicate 2
# [8] = T. gondii, 72 h, parasite screen 2 μg/mL, % growth, replicate 1
# [9] = T. gondii, 72 h, parasite screen 2 μg/mL, % growth, replicate 2
# [10] = library screen at 2 μg/mL, 120 h, % growth, replicate 1
# [11] = library screen at 2 μg/mL, 120 h, % growth, replicate 2
# [12] = library screen at 2 μg/mL, 72 h, % growth, replicate 1
# [13] = library screen at 2 μg/mL, 72 h, % growth, replicate 2
# [14] = Toxoplasma gondii, 72 h, T. gondii, 72 h, parasite screen 2 μg/mL, % growth, replicate 1; read-out: Tg_72h_%Growth_Rep1
# [15] = Toxoplasma gondii, 72 h, T. gondii, 72 h, parasite screen 2 μg/mL, % growth, replicate 2; read-out: Tg_72h_%Growth_Rep2
# [16] = 2 μg/mL, 72 h, active = ≥80 % growth inhibition
# [17] = P. falciparum, 120 h, screen at 2 μg/mL, replicate 1
# [18] = P. falciparum, 120 h, screen at 2 μg/mL, replicate 2
# [19] = P. falciparum, 72 h, screen at 2 μg/mL, replicate 1
# [20] = P. falciparum, 72 h, screen at 2 μg/mL, replicate 2
# [21] = T. gondii, 72 h, screen at 2 μg/mL, replicate 1
# [22] = T. gondii, 72 h, screen at 2 μg/mL, replicate 2
smiles,measurement,setting,value
CCCCC[C@@H]1CCCCC[C@@H](O)C[C@H](O)[C@H](O)/C=C/C(=O)O1 [Sch 725674],Pf_120h_%Growth_Rep1,[1]; [4],118.17%
same,Pf_120h_%Growth_Rep2,[1]; [5],96.28%
same,Pf_72h_%Growth_Rep1,[2]; [6],94.68%
same,Pf_72h_%Growth_Rep2,[2]; [7],136.05%
same,Tg_72h_%Growth_Rep1,[3]; [8],110.92%
same,Tg_72h_%Growth_Rep2,[3]; [9],69.04%
CC1(C)CCCC2(C)c3cnncc3CCC12 (stereo not drawn) [Polygodial pyridazine],Pf_120h_%Growth_Rep1,[1]; [4],58.21%
same,Pf_120h_%Growth_Rep2,[1]; [5],140.85%
same,Pf_72h_%Growth_Rep1,[2]; [6],71.42%
same,Pf_72h_%Growth_Rep2,[2]; [7],85.26%
same,Tg_72h_%Growth_Rep1,[3]; [8],119.26%
same,Tg_72h_%Growth_Rep2,[3]; [9],96.17%
CC[C@H]1OC(=O)[C@H](C)[C@@H](O[C@H]2C[C@@](C)(OC)[C@@H](O)[C@H](C)O2)[C@H](C)[C@@H](O[C@@H]2O[C@H](C)C[C@H](N(C)C)[C@H]2O)[C@](C)(O)C[C@@H](C)C(=NO)[C@H](C)[C@@H](O)[C@]1(C)O [Erythromycin A oxime],Pf_120h_%Growth_Rep1,[1]; [10],78.37%
same,Pf_120h_%Growth_Rep2,[1]; [11],65.13%
same,Pf_72h_%Growth_Rep1,[2]; [12],85.19%
same,Pf_72h_%Growth_Rep2,[2]; [13],75.74%
same,Tg_72h_%Growth_Rep1,[3]; [12],42.42%
same,Tg_72h_%Growth_Rep2,[3]; [13],49.55%
CNc1ccc2oc(C[C@H]3O[C@@]4(CC[C@H]3C)O[C@H]([C@H](C)C(=O)c3ccc[nH]3)[C@H](C)C[C@H]4C)nc2c1C(=O)O [Calcimycin],activity at 2 µg/mL,"[1]; Plasmodium falciparum, 3D7, 120 h, P. falciparum, 120 h, screen at 2 μg/mL, replicate 1, read-out: Pf_120h_%Growth_Rep1",11.6%
same,activity at 2 µg/mL,"[1]; Plasmodium falciparum, 3D7, 120 h, P. falciparum, 120 h, screen at 2 μg/mL, replicate 2, read-out: Pf_120h_%Growth_Rep2",3.04%
same,activity at 2 µg/mL,"[2]; Plasmodium falciparum, 3D7, 72 h, P. falciparum, 72 h, screen at 2 μg/mL, replicate 1, read-out: Pf_72h_%Growth_Rep1",13.1%
same,activity at 2 µg/mL,"[2]; Plasmodium falciparum, 3D7, 72 h, P. falciparum, 72 h, screen at 2 μg/mL, replicate 2, read-out: Pf_72h_%Growth_Rep2",6.23%
same,percent parasite growth at 2 µg/mL,"[3]; Toxoplasma gondii, 72 h, T. gondii, 72 h, screen at 2 μg/mL, replicate 1; read-out: Tg_72h_%Growth_Rep1",1.82%
same,percent parasite growth at 2 µg/mL,"[3]; Toxoplasma gondii, 72 h, T. gondii, 72 h, screen at 2 μg/mL, replicate 2; read-out: Tg_72h_%Growth_Rep2",1.52%
CO[C@H]1[C@H](O)[C@@H](O)[C@H](n2c3c(Cl)cccc3c3c4c(c5c6cccc(Cl)c6[nH]c5c32)C(=O)NC4=O)O[C@@H]1CO [Rebeccamycin],3) Fold change (72 h/120 h),"[1]; P. falciparum, growth at 72 h / growth at 120 h, 2 μg/mL",1.2
same,activity at 2 µg/mL,"[1]; Plasmodium falciparum, 3D7; P. falciparum, 2 μg/mL, 120 h; read-out: 2) Growth (%) at 120 h",18.4%
same,activity at 2 µg/mL,"[1]; Plasmodium falciparum, 3D7, P. falciparum, 120 h, parasite screen 2 μg/mL, % growth, replicate 1, read-out: Pf_120h_%Growth_Rep1",22.3%
same,activity at 2 µg/mL,"[1]; Plasmodium falciparum, 3D7, P. falciparum, 120 h, parasite screen 2 μg/mL, % growth, replicate 2, read-out: Pf_120h_%Growth_Rep2",14.5%
same,activity at 2 µg/mL,"[2]; Plasmodium falciparum, 3D7; P. falciparum, 2 μg/mL, 72 h; read-out: 1) Growth (%) at 72 h",21.6%
same,activity at 2 µg/mL,"[2]; Plasmodium falciparum, 3D7, P. falciparum, 72 h, parasite screen 2 μg/mL, % growth, replicate 1, read-out: Pf_72h_%Growth_Rep1",22.6%
same,activity at 2 µg/mL,"[2]; Plasmodium falciparum, 3D7, P. falciparum, 72 h, parasite screen 2 μg/mL, % growth, replicate 2, read-out: Pf_72h_%Growth_Rep2",20.5%
same,percent parasite growth at 2 µg/mL,[3]; [14],35.4%
same,percent parasite growth at 2 µg/mL,[3]; [15],70.9%
"CN[C@@H]1C[C@H]2O[C@@](C)([C@@H]1OC)n1c3ccccc3c3c4c(c5c6ccccc6n2c5c31)C(=O)NC4 [staurosporine, reference compound]",activity at 2 µg/mL,"[1]; Plasmodium falciparum, 3D7, 120 h, P. falciparum, 120 h, parasite screen 2 μg/mL, % growth, replicate 1, read-out: Pf_120h_%Growth_Rep1",10.8%
same,activity at 2 µg/mL,"[1]; Plasmodium falciparum, 3D7, 120 h, P. falciparum, 120 h, parasite screen 2 μg/mL, % growth, replicate 2, read-out: Pf_120h_%Growth_Rep2",1.05%
same,activity in the screen against P. falciparum,[2]; [16],active in our screens
same,activity at 2 µg/mL,"[2]; Plasmodium falciparum, 3D7, 72 h, P. falciparum, 72 h, parasite screen 2 μg/mL, % growth, replicate 1, read-out: Pf_72h_%Growth_Rep1",9.8%
same,activity at 2 µg/mL,"[2]; Plasmodium falciparum, 3D7, 72 h, P. falciparum, 72 h, parasite screen 2 μg/mL, % growth, replicate 2, read-out: Pf_72h_%Growth_Rep2",-0.94%
same,activity in the screen against T. gondii,[3]; [16],active in our screens
same,percent parasite growth at 2 µg/mL,[3]; [14],1.08%
same,percent parasite growth at 2 µg/mL,[3]; [15],-0.18%
"C[C@H]1CCC/C=C/C(=O)c2c(O)cc(O)cc2CC(=O)O1 [Dehydrocurvularin, 10,11-]",Pf_120h_%Growth_Rep1,[1]; [17],13.56%
same,Pf_120h_%Growth_Rep2,[1]; [18],16.52%
same,Pf_72h_%Growth_Rep1,[2]; [19],4.73%
same,Pf_72h_%Growth_Rep2,[2]; [20],1.02%
same,Tg_72h_%Growth_Rep1,[3]; [21],4.20%
same,Tg_72h_%Growth_Rep2,[3]; [22],2.39%
CCC(C)CCCCCCC(=O)N[C@H]1[C@H](Oc2c3cc4cc2Oc2ccc(cc2Cl)[C@@H](O[C@@H]2O[C@H](CO)[C@@H](O)[C@H](O)[C@H]2NC(C)=O)[C@@H]2NC(=O)[C@H](NC(=O)[C@@H]4NC(=O)[C@H]4NC(=O)[C@@H](Cc5ccc(c(Cl)c5)O3)NC(=O)[C@H](N)c3ccc(O)c(c3)Oc3cc(O)cc4c3)c3ccc(O)c(c3)-c3c(O[C@H]4O[C@H](CO)[C@@H](O)[C@H](O)[C@@H]4O)cc(O)cc3[C@@H](C(=O)O)NC2=O)O[C@H](CO)[C@@H](O)[C@@H]1O (stereo partly drawn) [Teicoplanin A2-4],Pf_120h_%Growth_Rep1,[1]; [17],64.36%
same,Pf_120h_%Growth_Rep2,[1]; [18],53.42%
same,Pf_72h_%Growth_Rep1,[2]; [19],81.32%
same,Pf_72h_%Growth_Rep2,[2]; [20],78.26%
same,Tg_72h_%Growth_Rep1,[3]; [21],112.03%
same,Tg_72h_%Growth_Rep2,[3]; [22],79.02%
CC[C@H](C)[C@@H](OC(C)=O)[C@@H](C)C1=CC(=O)C2=C(O[C@]3(C)CC[C@H]4O[C@@H](C(C)(C)O)CC[C@]4(C)[C@H]3[C@@H]2O)C1=O [Cochlioquinone A],activity at 2 µg/mL,"[1]; Plasmodium falciparum, 3D7, P. falciparum, 120 h, screen at 2 μg/mL, replicate 1, read-out: Pf_120h_%Growth_Rep1",75.8%
same,activity at 2 µg/mL,"[1]; Plasmodium falciparum, 3D7, P. falciparum, 120 h, screen at 2 μg/mL, replicate 2, read-out: Pf_120h_%Growth_Rep2",74.1%
same,activity at 2 µg/mL,"[2]; Plasmodium falciparum, 3D7, P. falciparum, 72 h, screen at 2 μg/mL, replicate 1, read-out: Pf_72h_%Growth_Rep1",79.2%
same,activity at 2 µg/mL,"[2]; Plasmodium falciparum, 3D7, P. falciparum, 72 h, screen at 2 μg/mL, replicate 2, read-out: Pf_72h_%Growth_Rep2",80.1%
same,percent parasite growth at 2 µg/mL,"[3]; Toxoplasma gondii; T. gondii, 72 h, screen at 2 μg/mL, replicate 1; read-out: Tg_72h_%Growth_Rep1",161%
same,percent parasite growth at 2 µg/mL,"[3]; Toxoplasma gondii; T. gondii, 72 h, screen at 2 μg/mL, replicate 2; read-out: Tg_72h_%Growth_Rep2",90.2%
CN1C(=O)c2ccccc2-n2c(nc3ccccc3c2=O)/C1=C\c1ccccc1 [Benzomalvin B],Pf_120h_%Growth_Rep1,[1]; [10],2.26%
same,Pf_120h_%Growth_Rep2,[1]; [11],61.47%
same,Mean,"[2]; P. falciparum, 72 h, 2 μg/mL, mean of both replicates, growth (% of control)",40.89
same,Pf_72h_%Growth_Rep1,[2]; [12],1.98%
same,Pf_72h_%Growth_Rep2,[2]; [13],79.80%
same,Tg_72h_%Growth_Rep1,[3]; [12],108.53%
same,Tg_72h_%Growth_Rep2,[3]; [13],82.96%
O=c1[nH]c2ccccc2c(-c2cccc(O)c2)c1O [Viridicatol],Pf_120h_%Growth_Rep1,[1]; [17],110.38%
same,Pf_120h_%Growth_Rep2,[1]; [18],105.05%
same,Pf_72h_%Growth_Rep1,[2]; [19],94.32%
same,Pf_72h_%Growth_Rep2,[2]; [20],122.09%
same,Tg_72h_%Growth_Rep1,[3]; [21],112.17%
same,Tg_72h_%Growth_Rep2,[3]; [22],75.26%
C=C(NC(=O)C(=C)NC(=O)c1ccc2c(n1)-c1coc(n1)C(=C)NC(=O)C(=C)NC(=O)c1nc(oc1C)C(=C)NC(=O)[C@H](C(C)(C)O)NC(=O)C(=C)NC(=O)c1nc(oc1C)/C(=C/C)NC(=O)[C@H]([C@@H](C)O)NC(=O)c1csc-2n1)C(N)=O [Berninamycin A],Pf_120h_%Growth_Rep1,[1]; [10],140.98%
same,Pf_120h_%Growth_Rep2,[1]; [11],104.87%
same,Pf_72h_%Growth_Rep1,[2]; [12],102.47%
same,Pf_72h_%Growth_Rep2,[2]; [13],88.00%
same,Tg_72h_%Growth_Rep1,[3]; [12],80.20%
same,Tg_72h_%Growth_Rep2,[3]; [13],95.18%
CN1C(=O)c2ccccc2-n2c(nc3ccccc3c2=O)[C@@H]1Cc1ccccc1 [Benzomalvin A],Pf_120h_%Growth_Rep1,[1]; [10],152.22%
same,Pf_120h_%Growth_Rep2,[1]; [11],94.98%
same,Pf_72h_%Growth_Rep1,[2]; [12],68.69%
same,Pf_72h_%Growth_Rep2,[2]; [13],85.94%
same,Tg_72h_%Growth_Rep1,[3]; [12],76.13%
same,Tg_72h_%Growth_Rep2,[3]; [13],90.69%
